Experimental data reported in patent US6495133B1, “Gliocladium roseum strains useful for the control of fungal pathogens in plants” (priority 1998, dated 2002).
Like-named read-outs stand apart in the source and are kept apart here.

What was measured:
[1] = tested on: Sclerotinia sclerotiorum; experiment: Control of sclerotinia rot in field pea, growth room experiments
Experimental: (§1) In growth room experiments, seeds were planted in wood planting flats (35.5×47.0×9.0 cm) containing soil mixture of 2:1:1 of soil, perlite and peat moss. The soil mixture was pasteurized and mixed at about 2% v/v with artificially infested vermiculite that was moistened with 0.4% malt extract, autoclaved, inoculated with B. solani, and incubated at 20° C. for 7 days prior to the planting. […] For each treatment 100 seeds were planted in each of the 4-replicate flats. The planted flats were placed in a growth room maintained at 20° C. and with a 14-h photoperiod at 350 mol.m^−2.s^−1 light intensity by fluorescent and incandescent lamps. All experiments were arranged in a completely randomized block design. Emergence was counted 7 days after planting and other parameters were assessed after digging out plants 14 to 16 days after planting. Disease severity was rated on a scale of 0 (no visible lesions on lower stem and roots, seedling is well developed) to 9 (death of plant, the seedling died back quickly after emergence).
The seed treatment procedures, inoculum preparation, inoculation and assessment methods for both growth room and field experiments were the same as described above.

[2] = tested on: Mycosphaerella pinodes; experiment: Control of seed-borne phase of mycosphaerella blight in field pea, field experiments; assay type: in vivo; details: for increased emergence by / increased yield by: average of two cultivars
[3] = tested on: Fusarium solani; experiment: Control of fusarium root rot in field pea, growth room experiments; details: Field pea (cv. Radley)
Experimental: as §1

[4] = tested on: Fusarium graminearum, Bipolaris sorokiniana, F. avenaceum, Alternaria alternata, and other Fusarium species (naturally infected seeds); assay type: in vivo
[5] = tested on: field pea; experiment: Comparison and compatibility of ACM941 with thiram fungicide, field pea, field experiments; assay type: in vivo
[6] = tested on: Aphanomyces euteiches; experiment: Control of aphanomyces root rot in field pea, field experiments; assay type: in vivo
[7] = tested on: Fusarium oxysporium; experiment: Control of fusarium wilt in field pea, field experiments; assay type: in vivo
[8] = tested on: Fusarium oxysporum; experiment: Control of fusarium wilt in field pea, growth room experiments; details: Field pea (cv. Radley)
Experimental: as §1

[9] = tested on: Rhizoctonia solani; experiment: Control of rhizoctonia root rot, growth room experiments; assay type: in vivo
[10] = Healthy-looking seed (HL), 1995, AC Tamor
[11] = Healthy-looking seed (HL), 1995, Radley
[12] = Healthy-looking seed (HL), 1996, AC Tamor
[13] = Healthy-looking seed (HL), 1996, Radley
[14] = Visibly poor seed (VP), 1995, AC Tamor
[15] = Visibly poor seed (VP), 1995, Radley
[16] = Visibly poor seed (VP), 1996, AC Tamor
[17] = Visibly poor seed (VP), 1996, Radley
[18] = barley, average of the two cultivars
[19] = Lacombe site, average of two cultivars and two years
[20] = Morden site, average of two cultivars and two years
[21] = Brussel Sprouts (cv. Long Island)
[22] = Cauliflower (cv. Early Snowball)
[23] = Egg Plant (cv. Early Long Purple)

Compound: CN(C)C(=S)SSC(=S)N(C)C [Thiram, thiram]
- Dry wt. ([1]; Field pea (cv. Radley)): 0.23 a g/plant
- Emergence ([1]; Field pea (cv. Radley)): 68.1 a %
- Fresh wt. ([1]; Field pea (cv. Radley)): 2.2 a g/plant
- Root rot severity ([1]; Field pea (cv. Radley)): 3.2 ab 0-9
- effect on dry weight compared to the nontreated control ([1]; greenhouse experiments): Neither ACM941 nor thiram fungicide showed an increase in dry weight
- increased emergence by ([2]; HL seeds, 1995): 108%
- increased yield by ([2]; HL seeds, 1995): 106%
- decreased yield by ([2]; HL seeds, 1996): 6%
- increased emergence by ([2]; HL seeds, 1996): 38%
- Emergence [2, 10]: 75.9 a
- Yield [2, 10]: 2892 a
- Emergence [2, 11]: 91.0 a
- Yield [2, 11]: 459 a
- Emergence [2, 12]: 77.9 a
- Yield [2, 12]: 7381 a
- Emergence [2, 13]: 89.1 a
- Yield [2, 13]: 3114 b
- increased emergence by ([2]; VP seeds, 1995): 293%
- increased yield by ([2]; VP seeds, 1995): 148%
- increased emergence by ([2]; VP seeds, 1996): 55%
- increased yield by ([2]; VP seeds, 1996): 4%
- Emergence [2, 14]: 51.0 a
- Yield [2, 14]: 260 a
- Emergence [2, 15]: 29.1 a
- Yield [2, 15]: 643 a
- Emergence [2, 16]: 49.5 a
- Yield [2, 16]: 7228 a
- Emergence [2, 17]: 57.5 a
- Yield [2, 17]: 4410 a
- Dry wt. [3]: 0.27 a g/plant
- Emergence [3]: 57.5 a %
- Fresh wt. [3]: 2.7 a g/plant
- Root rot severity [3]: 3.3 ab 0-9
- Dry wt. ([4]; Barley, Argyle): 0.32 a g/plant
- Emergence ([4]; Barley, Argyle): 93.9 a %
- Fresh wt. ([4]; Barley, Argyle): 1.24 a g/plant
- Root rot incidence ([4]; Barley, Argyle): 10.8 b %
- Root rot severity ([4]; Barley, Argyle): 0.5 b 0-9
- Dry wt. ([4]; Barley, Manley): 0.22 a g/plant
- Emergence ([4]; Barley, Manley): 84.3 a %
- Fresh wt. ([4]; Barley, Manley): 1.04 a g/plant
- Root rot incidence ([4]; Barley, Manley): 77.8 a %
- Root rot severity ([4]; Barley, Manley): 4.2 ab 0-9
- Dry wt. ([4]; Wheat, Katepwa): 0.23 a g/plant
- Emergence ([4]; Wheat, Katepwa): 70.7 a %
- Fresh wt. ([4]; Wheat, Katepwa): 0.96 a g/plant
- Root rot incidence ([4]; Wheat, Katepwa): 12.5 ab %
- Root rot severity ([4]; Wheat, Katepwa): 0.7 ab 0-9
- Dry wt. ([4]; Wheat, Plenty): 0.16 a g/plant
- Emergence ([4]; Wheat, Plenty): 88.4 a %
- Fresh wt. ([4]; Wheat, Plenty): 0.79 a g/plant
- Root rot incidence ([4]; Wheat, Plenty): 10.1 b %
- Root rot severity ([4]; Wheat, Plenty): 0.6 b 0-9
- Dry wt. ([4]; Wheat, Sceptre): 0.14 a g/plant
- Emergence ([4]; Wheat, Sceptre): 52.4 a %
- Fresh wt. ([4]; Wheat, Sceptre): 0.65 a g/plant
- Root rot incidence ([4]; Wheat, Sceptre): 24.7 b %
- Root rot severity ([4]; Wheat, Sceptre): 1.1 b 0-9
- reduced root rot incidence by [4, 18]: 31%
- reduced root rot severity by [4, 18]: 38%
- increased emergence by [5, 19]: 4%
- reduced yield by [5, 19]: 4%
- Emergence ([5]; Lacombe, Alberta, 1996, Grande): 87.2 a
- Yield ([5]; Lacombe, Alberta, 1996, Grande): 8729 a
- Emergence ([5]; Lacombe, Alberta, 1996, Radley): 84.0 a
- Yield ([5]; Lacombe, Alberta, 1996, Radley): 5782 a
- Emergence ([5]; Lacombe, Alberta, 1997, Grande): 67.0 b
- Yield ([5]; Lacombe, Alberta, 1997, Grande): 6507 b
- Emergence ([5]; Lacombe, Alberta, 1997, Radley): 87.3 a
- Yield ([5]; Lacombe, Alberta, 1997, Radley): 4300 a
- increased emergence by [5, 20]: 38%
- increased yield by [5, 20]: 29%
- Emergence ([5]; Morden, Manitoba, 1996, Grande): 64.9 a
- Yield ([5]; Morden, Manitoba, 1996, Grande): 4541 a
- Emergence ([5]; Morden, Manitoba, 1996, Radley): 74.1 a
- Yield ([5]; Morden, Manitoba, 1996, Radley): 3286 a
- Emergence ([5]; Morden, Manitoba, 1997, Grande): 65.0 a
- Yield ([5]; Morden, Manitoba, 1997, Grande): 1878 a
- Emergence ([5]; Morden, Manitoba, 1997, Radley): 79.1 a
- Yield ([5]; Morden, Manitoba, 1997, Radley): 1064 c
- increased yield by ([5]; average of the four station years, two sites): 12%
- Emergence ([6]; 1998, Carneval): 88.1 a
- Yield ([6]; 1998, Carneval): 6122 a
- Emergence ([6]; 1998, Radley): 91.9 a
- Yield ([6]; 1998, Radley): 5110 a
- Emergence ([6]; 1999, Carneval): 90.3 a
- Yield ([6]; 1999, Carneval): 4986 a
- Emergence ([6]; 1999, Radley): 81.0 a
- Yield ([6]; 1999, Radley): 4315 a
- Emergence ([7]; 1996, AC Tamor): 78.3 a
- Yield ([7]; 1996, AC Tamor): 5203 a
- Emergence ([7]; 1996, Radley): 85.9 ab
- Yield ([7]; 1996, Radley): 2442 a
- Emergence ([7]; 1997, AC Tamor): 84.0 a
- Yield ([7]; 1997, AC Tamor): 6625 a
- Emergence ([7]; 1997, Radley): 63.8 ab
- Yield ([7]; 1997, Radley): 5037 b
- Dry wt. [8]: 0.34 a g/plant
- Emergence [8]: 86.3 a %
- Fresh wt. [8]: 3.1 a g/plant
- Root rot severity [8]: 1.3 a 0-9
- Dry wt. ([9]; Broccoli (cv. Green Sprouting)): 0.01 a g/plant
- Emergence ([9]; Broccoli (cv. Green Sprouting)): 34.0 a %
- Fresh wt. ([9]; Broccoli (cv. Green Sprouting)): 0.1 a g/plant
- Root/foot rot severity ([9]; Broccoli (cv. Green Sprouting)): 5.1 ab 0-9
- Dry wt. [9, 21]: 0.02 a g/plant
- Emergence [9, 21]: 19.5 b %
- Fresh wt. [9, 21]: 0.2 ab g/plant
- Root/foot rot severity [9, 21]: 2.8 a 0-9
- Dry wt. ([9]; Cabbage (cv. Golden Acre)): 0.01 a g/plant
- Emergence ([9]; Cabbage (cv. Golden Acre)): 59.5 a %
- Fresh wt. ([9]; Cabbage (cv. Golden Acre)): 0.2 a g/plant
- Root/foot rot severity ([9]; Cabbage (cv. Golden Acre)): 2.9 b 0-9
- Dry wt. [9, 22]: 0.01 a g/plant
- Emergence [9, 22]: 11.5 b %
- Fresh wt. [9, 22]: 0.1 a g/plant
- Root/foot rot severity [9, 22]: 4.0 a 0-9
- Dry wt. ([9]; Cucumber (cv. Imp. Long Green)): 0.06 a g/plant
- Emergence ([9]; Cucumber (cv. Imp. Long Green)): 49.0 b %
- Fresh wt. ([9]; Cucumber (cv. Imp. Long Green)): 0.5 a g/plant
- Root/foot rot severity ([9]; Cucumber (cv. Imp. Long Green)): 2.2 b 0-9
- Dry wt. [9, 23]: 0.01 a g/plant
- Emergence [9, 23]: 79.3 a %
- Fresh wt. [9, 23]: 0.1 a g/plant
- Root/foot rot severity [9, 23]: 1.9 a 0-9
- Dry wt. ([9]; Field pea (cv. Radley)): 0.27 a g/plant
- Emergence ([9]; Field pea (cv. Radley)): 55.6 a %
- Fresh wt. ([9]; Field pea (cv. Radley)): 2.4 a g/plant
- Root/foot rot severity ([9]; Field pea (cv. Radley)): 3.4 a 0-9
- Dry wt. ([9]; Garden Pea (cv. Green Arrow)): 0.15 a g/plant
- Emergence ([9]; Garden Pea (cv. Green Arrow)): 89.2 a %
- Fresh wt. ([9]; Garden Pea (cv. Green Arrow)): 1.3 a g/plant
- Root/foot rot severity ([9]; Garden Pea (cv. Green Arrow)): 2.1 b 0-9
- Dry wt. ([9]; Marigold (cv. Lemondrop)): 0.06 a g/plant
- Emergence ([9]; Marigold (cv. Lemondrop)): 75.2 a %
- Fresh wt. ([9]; Marigold (cv. Lemondrop)): 0.5 a g/plant
- Root/foot rot severity ([9]; Marigold (cv. Lemondrop)): 2.1 a 0-9
- Dry wt. ([9]; Pepper (cv. California Wonder)): 0.01 a g/plant
- Emergence ([9]; Pepper (cv. California Wonder)): 70.5 b %
- Fresh wt. ([9]; Pepper (cv. California Wonder)): 0.1 a g/plant
- Root/foot rot severity ([9]; Pepper (cv. California Wonder)): 1.3 a 0-9
- Dry wt. ([9]; Sugar beet (cv. US H2O)): 0.29 a g/plant
- Emergence ([9]; Sugar beet (cv. US H2O)): 57.5 a %
- Fresh wt. ([9]; Sugar beet (cv. US H2O)): 4.4 a g/plant
- Root/foot rot severity ([9]; Sugar beet (cv. US H2O)): 1.6 b 0-9
- Dry wt. ([9]; Table beet (cv. Ruby Queen)): 0.01 a g/plant
- Emergence ([9]; Table beet (cv. Ruby Queen)): 78.5 a %
- Fresh wt. ([9]; Table beet (cv. Ruby Queen)): 0.1 a g/plant
- Root/foot rot severity ([9]; Table beet (cv. Ruby Queen)): 2.3 b 0-9
- Dry wt. ([9]; Tomato (cv. Bush Beefsteak)): 0.01 a g/plant
- Emergence ([9]; Tomato (cv. Bush Beefsteak)): 87.8 a %
- Fresh wt. ([9]; Tomato (cv. Bush Beefsteak)): 0.1 a g/plant
- Root/foot rot severity ([9]; Tomato (cv. Bush Beefsteak)): 1.5 a 0-9
